Measurements reported in ChEMBL document CHEMBL4368904 (J Med Chem, 2019).

Tests used:
Mus musculus [1] = assay: Induction of hypothermia in C57BL/6J mouse assessed as body temperature at 10 mg/kg, ip measured at 60 mins post dose (reference value: 36.3 +/- 0.8 degC); assay type: functional
Adenosine receptor A2a [2] = biological target: T1, Adenosine receptor A2a (Homo sapiens, UniProt P29274); assay: Displacement of [3H]2-[p-(2-carboxyethyl)phenylethylamino]-5-N-ethylcarboxamidoadenosine from human A2A adenosine receptor expressed in HEK293 cell membranes at 10 uM after 60 mins by scintillation proximity assay relative to adenosine 5-N-ethyluronamide
Translocator protein = Translocator protein (Homo sapiens, UniProt P30536); assay: Inhibition of TSPO (unknown origin)
[3] = biological target: Adenosine receptor A2a (Mus musculus) (UniProt Q60613); assay: Displacement of [3H]2-[p-(2-carboxyethyl)phenylethylamino]-5-N-ethylcarboxamidoadenosine from mouse A2A adenosine receptor expressed in HEK293 cell membranes at 10 uM after 60 mins by scintillation proximity assay relative to adenosine 5-N-ethyluronamide
[4] = biological target: Sigma intracellular receptor 2 (Homo sapiens, UniProt Q5BJF2); assay: Inhibition of sigma receptor 2 (unknown origin)
Mus musculus [5] = assay: Induction of hypothermia in C57BL/6J mouse assessed as activity counts at 10 mg/kg, ip measured at 60 mins post dose (reference value: 15.5 +/- 5.5); assay type: functional
[6] = biological target: T2, Adenosine receptor A3 (Homo sapiens) (UniProt P0DMS8); assay: Displacement of [125I]N6-(4-amino-3-iodobenzyl)adenosine-5-N-methyluronamide from human A3A adenosine receptor expressed in CHO cell membranes at 10 uM after 60 mins by scintillation proximity assay relative to adenosine 5-N-ethyluronamide
T2 sequence (whole entry): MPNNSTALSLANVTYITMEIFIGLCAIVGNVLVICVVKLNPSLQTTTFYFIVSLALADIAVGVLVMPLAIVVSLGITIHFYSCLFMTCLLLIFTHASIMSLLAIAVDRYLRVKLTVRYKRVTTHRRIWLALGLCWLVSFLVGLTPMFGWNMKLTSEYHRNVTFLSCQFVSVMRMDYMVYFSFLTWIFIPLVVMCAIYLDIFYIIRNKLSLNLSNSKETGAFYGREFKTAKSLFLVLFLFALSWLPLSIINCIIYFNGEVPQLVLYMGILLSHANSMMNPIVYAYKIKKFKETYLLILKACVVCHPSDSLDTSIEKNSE

[7] = biological target: T3, Adenosine receptor A3 (Mus musculus) (UniProt Q61618); assay: Displacement of [125I]N6-(4-amino-3-iodobenzyl)adenosine-5-N-methyluronamide from mouse A3A adenosine receptor expressed in CHO cell membranes at 10 uM after 60 mins by scintillation proximity assay relative to adenosine 5-N-ethyluronamide
T3 sequence (whole entry): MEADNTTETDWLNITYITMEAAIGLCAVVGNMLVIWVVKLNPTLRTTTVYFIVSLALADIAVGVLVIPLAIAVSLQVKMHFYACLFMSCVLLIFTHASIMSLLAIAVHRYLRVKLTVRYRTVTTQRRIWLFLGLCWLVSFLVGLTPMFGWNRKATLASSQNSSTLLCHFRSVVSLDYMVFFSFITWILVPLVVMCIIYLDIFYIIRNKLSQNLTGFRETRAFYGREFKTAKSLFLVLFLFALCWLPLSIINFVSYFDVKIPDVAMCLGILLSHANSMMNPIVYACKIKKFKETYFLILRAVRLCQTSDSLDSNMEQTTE

[8] = biological target: T4, Adenosine receptor A1 (Homo sapiens) (UniProt P30542); assay: Displacement of [3H]N6-R-phenylisopropyladenosine from human A1A adenosine receptor expressed in CHO cell membranes at 10 uM after 60 mins by scintillation proximity assay relative to adenosine 5-N-ethyluronamide
T4 sequence (whole entry): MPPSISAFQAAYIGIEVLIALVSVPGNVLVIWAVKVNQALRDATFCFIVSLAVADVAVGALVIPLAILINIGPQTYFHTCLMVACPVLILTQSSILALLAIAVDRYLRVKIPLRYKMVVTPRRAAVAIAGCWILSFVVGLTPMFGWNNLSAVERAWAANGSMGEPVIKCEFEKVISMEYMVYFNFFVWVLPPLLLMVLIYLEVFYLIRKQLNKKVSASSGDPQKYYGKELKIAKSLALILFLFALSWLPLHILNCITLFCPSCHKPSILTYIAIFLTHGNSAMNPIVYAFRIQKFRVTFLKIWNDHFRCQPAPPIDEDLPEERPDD

Adenosine receptor A1 [9] = biological target: T5, Adenosine receptor A1 (Homo sapiens, UniProt P30542); assay: Displacement of [3H]N6-R-phenylisopropyladenosine from human A1A adenosine receptor expressed in CHO cell membranes after 60 mins by scintillation proximity assay
T5 sequence (P30542 whole entry): T4 sequence (whole entry)

Adenosine receptor A2a [10] = biological target: T1, Adenosine receptor A2a; assay: Displacement of [3H]2-[p-(2-carboxyethyl)phenylethylamino]-5-N-ethylcarboxamidoadenosine from human A2A adenosine receptor expressed in HEK293 cell membranes after 60 mins by scintillation proximity assay
Mus musculus [11] = species on record: Mus musculus; assay: Selectivity index, ratio of Ki for mouse A3A adenosine receptor to Ki for mouse A1A adenosine receptor expressed in CHO cell membranes after 60 mins by scintillation proximity assay
[12] = biological target: T3, Adenosine receptor A3 (Mus musculus); assay: Agonist activity at mouse A3AR adenosine receptor at 10 uM after 60 mins by [35S]GTPgammaS binding assay relative to (2S,3S,4R,5R)-5-(6-amino-9H-purin-9-yl)-N-ethyl-3,4-dihydroxytetrahydrofuran-2-carboxamide; assay type: functional
[13] = Fraction unbound in rat plasma at 10 uM; assay type: ADME, cell-free
Mus musculus [14] = assay: Induction of hypothermia in C57BL/6J mouse assessed as body temperature at 3 mg/kg, ip measured at 60 mins post dose (reference value: 36.3 +/- 0.8 degC); assay type: functional
[15] = Fraction unbound in mouse plasma at 10 uM; assay type: ADME, cell-free
[16] = biological target: T6, Adenosine receptor A1 (Mus musculus) (UniProt Q60612); assay: Agonist activity at mouse A1A adenosine receptor at 10 uM after 60 mins by [35S]GTPgammaS binding assay relative to (2S,3S,4R,5R)-5-(6-amino-9H-purin-9-yl)-N-ethyl-3,4-dihydroxytetrahydrofuran-2-carboxamide; assay type: functional
T6 sequence (whole entry): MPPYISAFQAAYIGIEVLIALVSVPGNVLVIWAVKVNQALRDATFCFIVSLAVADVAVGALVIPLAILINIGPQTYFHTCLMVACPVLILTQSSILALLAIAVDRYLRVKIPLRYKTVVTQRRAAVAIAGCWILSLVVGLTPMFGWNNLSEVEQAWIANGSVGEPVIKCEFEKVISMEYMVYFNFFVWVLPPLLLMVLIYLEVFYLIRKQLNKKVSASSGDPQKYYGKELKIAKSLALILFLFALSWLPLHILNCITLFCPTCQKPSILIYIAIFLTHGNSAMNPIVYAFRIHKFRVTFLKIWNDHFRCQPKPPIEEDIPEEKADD

[17] = Fraction unbound in human plasma at 10 uM; assay type: ADME, cell-free
Mus musculus [18] = assay: Induction of hypothermia in C57BL/6J mouse assessed as activity counts at 3 mg/kg, ip measured at 60 mins post dose (reference value: 15.5 +/- 5.5); assay type: functional
Adenosine receptor A1 [19] = biological target: T7, Adenosine receptor A1 (Mus musculus, UniProt Q60612); assay: Displacement of [3H]N6-R-phenylisopropyladenosine from mouse A1A adenosine receptor expressed in CHO cell membranes after 60 mins by scintillation proximity assay
T7 sequence (Q60612 whole entry): T6 sequence (whole entry)

Adenosine receptor A3 [20] = biological target: T8, Adenosine receptor A3 (Mus musculus, UniProt Q61618); assay: Displacement of [125I]N6-(4-amino-3-iodobenzyl)adenosine-5-N-methyluronamide from mouse A3A adenosine receptor expressed in CHO cell membranes after 60 mins by scintillation proximity assay
T8 sequence (Q61618 whole entry): T3 sequence (whole entry)

Adenosine receptor A3 [21] = biological target: T9, Adenosine receptor A3 (Homo sapiens, UniProt P0DMS8); assay: Displacement of [125I]N6-(4-amino-3-iodobenzyl)adenosine-5-N-methyluronamide from human A3A adenosine receptor expressed in CHO cell membranes after 60 mins by scintillation proximity assay
T9 sequence (P0DMS8 whole entry): T2 sequence (whole entry)

[22] = biological target: 5-hydroxytryptamine receptor 2B (Homo sapiens, UniProt P41595); assay: Inhibition of 5HT2B (unknown origin)
Sequence of 5-hydroxytryptamine receptor 2B (P41595 whole entry): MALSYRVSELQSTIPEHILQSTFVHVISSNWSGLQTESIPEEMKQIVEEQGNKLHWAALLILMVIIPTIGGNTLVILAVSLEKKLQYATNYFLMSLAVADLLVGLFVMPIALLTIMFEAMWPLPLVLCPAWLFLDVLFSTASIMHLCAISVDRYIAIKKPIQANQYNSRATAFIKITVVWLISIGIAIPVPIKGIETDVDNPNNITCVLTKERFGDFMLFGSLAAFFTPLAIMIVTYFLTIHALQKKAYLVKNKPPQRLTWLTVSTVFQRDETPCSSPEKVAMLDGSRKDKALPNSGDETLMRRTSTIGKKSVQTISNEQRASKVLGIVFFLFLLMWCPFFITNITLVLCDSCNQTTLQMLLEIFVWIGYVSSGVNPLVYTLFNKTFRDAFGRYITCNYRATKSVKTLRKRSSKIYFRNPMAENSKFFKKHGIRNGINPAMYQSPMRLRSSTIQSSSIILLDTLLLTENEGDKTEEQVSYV

Sequence of Sigma intracellular receptor 2 (Q5BJF2 whole entry): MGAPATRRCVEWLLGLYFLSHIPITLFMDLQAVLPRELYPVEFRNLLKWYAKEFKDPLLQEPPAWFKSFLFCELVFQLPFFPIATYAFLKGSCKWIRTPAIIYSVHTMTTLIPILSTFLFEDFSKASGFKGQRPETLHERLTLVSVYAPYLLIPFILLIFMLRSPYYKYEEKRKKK
T1 sequence (P29274 whole entry): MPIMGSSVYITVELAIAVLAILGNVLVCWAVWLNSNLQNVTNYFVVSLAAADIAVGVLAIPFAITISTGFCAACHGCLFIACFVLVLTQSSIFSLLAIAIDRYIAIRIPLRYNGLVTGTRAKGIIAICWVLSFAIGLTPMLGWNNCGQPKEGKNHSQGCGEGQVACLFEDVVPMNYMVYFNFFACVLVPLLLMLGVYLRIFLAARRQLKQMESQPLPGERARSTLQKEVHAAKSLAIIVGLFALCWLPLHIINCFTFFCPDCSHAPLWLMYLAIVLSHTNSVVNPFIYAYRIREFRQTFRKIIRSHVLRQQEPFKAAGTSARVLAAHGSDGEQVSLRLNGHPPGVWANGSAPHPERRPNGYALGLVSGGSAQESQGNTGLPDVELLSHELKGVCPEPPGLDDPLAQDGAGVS
Sequence of Adenosine receptor A2a (Mus musculus) (Q60613 whole entry): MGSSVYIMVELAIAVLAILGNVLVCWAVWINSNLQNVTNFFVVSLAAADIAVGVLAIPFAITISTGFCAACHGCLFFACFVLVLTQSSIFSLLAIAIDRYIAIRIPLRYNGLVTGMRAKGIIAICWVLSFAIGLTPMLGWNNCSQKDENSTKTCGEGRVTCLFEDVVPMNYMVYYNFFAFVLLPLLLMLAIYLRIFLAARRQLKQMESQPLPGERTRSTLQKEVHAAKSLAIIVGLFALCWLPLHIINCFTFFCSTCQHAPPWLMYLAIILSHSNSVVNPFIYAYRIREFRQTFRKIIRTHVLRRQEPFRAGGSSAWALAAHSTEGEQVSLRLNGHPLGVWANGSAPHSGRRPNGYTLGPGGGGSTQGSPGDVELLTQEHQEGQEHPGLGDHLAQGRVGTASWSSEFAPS
Sequence of Translocator protein (P30536 whole entry): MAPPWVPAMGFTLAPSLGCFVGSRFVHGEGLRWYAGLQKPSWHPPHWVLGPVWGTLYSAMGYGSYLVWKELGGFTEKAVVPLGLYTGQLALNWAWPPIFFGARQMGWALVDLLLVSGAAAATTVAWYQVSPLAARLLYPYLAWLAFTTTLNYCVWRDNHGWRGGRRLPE

## O[C@H]1[C@H](n2cnc3c(NC(C4CCC4)C4CCC4)nc(Cl)nc32)[C@H]2C[C@@]2(CCl)[C@H]1O
Mus musculus [1]
  T: 36.5 °C
Adenosine receptor A2a [2]
  inhibition: 17%
Translocator protein
  Ki: 2890 nM
[3]
  inhibition: 20%
[4]
  Ki: 349 nM
Mus musculus [5]
  Activity: 18.9

## COC(=O)c1ncn([C@H]2[C@H](O)[C@H](O)[C@]3(CO)C[C@H]23)n1
Adenosine receptor A2a [2]
  inhibition: 14%
[6]
  inhibition: 22%
[4]
  Ki: 1720 nM
[7]
  inhibition: 15%
[8]
  inhibition: 6%

## O[C@@H]1[C@H](O)[C@@H](CSc2ccccc2F)O[C@H]1n1cnc2c(N[C@@H]3CCC[C@H]3O)ncnc21 [GS-9667]
Adenosine receptor A1 [9]
  Ki: 12 nM
Adenosine receptor A2a [10]
  Ki: > 10000 nM

## OC[C@@]12C[C@@H]1[C@@H](n1cnc3c(NC(C4CCC4)C4CCC4)nc(Cl)nc31)[C@H](O)[C@@H]2O
Mus musculus [1]
  T: 36.6 °C
Adenosine receptor A2a [2]
  inhibition: 55%
Translocator protein
  Ki: 2930 nM
[3]
  inhibition: 26%
[6]
  inhibition: 25%
Mus musculus [5]
  Activity: 18.4

## O[C@H]1[C@H](n2cnc3c(N[C@H]4C[C@H]5CC[C@@H]4C5)nc(Cl)nc32)[C@H]2C[C@@]2(CCl)[C@H]1O
Adenosine receptor A2a [2]
  inhibition: 54%
Mus musculus [11]
  Ratio Ki: 270
[12]
  Emax: 50%
[3]
  inhibition: 15%
[13]
  Fu: 2.53%
Mus musculus [14]
  T: 36.6 °C
[15]
  Fu: 2.95%
[16]
  Emax: 123%
[17]
  Fu: 4.04%
Mus musculus [18]
  Activity: 16.8

## OC[C@H]1O[C@@H](n2cnc3c(NC(C4CCC4)C4CCC4)nc(Cl)nc32)[C@H](O)[C@@H]1O
Mus musculus [11]
  Ratio Ki: 1000
[12]
  Emax: 63%
[13]
  Fu: 4.64%
Mus musculus [14]
  T: 35.5 °C
[15]
  Fu: 4.74%
[16]
  Emax: 90%
[17]
  Fu: 5.81%
Mus musculus [18]
  Activity: 13.5

## Nc1ncnc2c1ncn2[C@@H]1O[C@H](C(=O)O)[C@@H](O)[C@H]1O [5'-CARBOXY ADENOSINE]
Adenosine receptor A2a [2]
  inhibition: 11%
[6]
  inhibition: 32%
[4]
  Ki: 796 nM
[8]
  inhibition: 24%

## O[C@H]1[C@H](n2cnc3c(NC(C4CCC4)C4CCC4)ncnc32)[C@H]2C[C@@]2(CCl)[C@H]1O
Adenosine receptor A2a [2]
  inhibition: 38%
Translocator protein
  Ki: 2020 nM
[6]
  inhibition: 49%
[4]
  Ki: 1170 nM
Mus musculus [14]
  T: 35.9 °C
Mus musculus [18]
  Activity: 14.8

## OC[C@H]1O[C@@H](n2cnc3c(N[C@H]4C[C@H]5CC[C@@H]4C5)ncnc32)[C@H](O)[C@@H]1O
Adenosine receptor A1 [19]
  Ki: 0.14 nM
Adenosine receptor A3 [20]
  Ki: 424 nM

## O[C@@H]1[C@H](O)[C@@H](CCl)O[C@H]1n1cnc2c(NC3C[C@H]4CC[C@@H]3C4)ncnc21 (mixture of isomers)
Adenosine receptor A3 [21]
  Ki: 1290 nM
Mus musculus [14]
  T: 32.2 °C
Mus musculus [18]
  Activity: 2.8
Adenosine receptor A2a [10]
  Ki: 1340 nM
Adenosine receptor A3 [20]
  Ki: 2410 nM

## OC[C@@]12C[C@@H]1[C@@H](n1cnc3c(N[C@H]4C[C@H]5CC[C@@H]4C5)nc(Cl)cc31)[C@H](O)[C@@H]2O
Adenosine receptor A2a [2]
  inhibition: 29%

## O[C@H]1[C@H](n2cnc3c(NC(C4CCC4)C4CCC4)nc(Cl)nc32)[C@H]2C[C@@]2(CSc2ccccc2F)[C@H]1O
Adenosine receptor A2a [2]
  inhibition: 22%
[3]
  inhibition: 20%
[4]
  Ki: 583 nM
[8]
  inhibition: 45%

## O=C(NCCO)[C@@]12C[C@@H]1[C@@H](n1cnc3c(N[C@H]4C[C@H]5CC[C@@H]4C5)nc(Cl)nc31)[C@H](O)[C@@H]2O
[3]
  inhibition: 23%

## CNC(=O)[C@]12C[C@@H]1[C@@H](n1cnc3c(NC4CCCC4)nc(Cl)nc31)[C@H](O)[C@@H]2O
Adenosine receptor A1 [19]
  Ki: 0.68 nM
[22]
  Ki: 12 nM
Adenosine receptor A3 [20]
  Ki: 3.46 nM

## CCOC(=O)[C@@]12C[C@@H]1[C@@H](n1cnc3c(NC(C4CCC4)C4CCC4)nc(Cl)nc31)[C@H](O)[C@@H]2O
Adenosine receptor A2a [2]
  inhibition: 57%
[4]
  Ki: 2020 nM

## O[C@@H]1[C@H](O)[C@@H](CCl)O[C@H]1n1cnc2c(NC(C3CCC3)C3CCC3)ncnc21
Mus musculus [1]
  T: 35.8 °C
Translocator protein
  Ki: 3980 nM
[4]
  Ki: 662 nM
Mus musculus [5]
  Activity: 20.5

## NC(=O)c1ncn([C@@H]2O[C@H](CO)[C@@H](O)[C@H]2O)n1
Adenosine receptor A2a [2]
  inhibition: 23%
[6]
  inhibition: 16%
[7]
  inhibition: 0%
